Test results as given in US9533040B2, “Inhibition of human immunodeficiency virus integrase reaching dimer formation utilizing single-chain variable antibodies” (priority 2010, dated 2017).

B1: mAb33: monoclonal antibody specific for the CTD of HIV IN; single chain Fv sequence SEQ ID NO:194 (protein, listed as Mus musculus)
scFv: MKYLLPTAAAGLLLLAAQPAMAMGHHHHHHHHHHSSGHIDDDDKHMDIQMTQSPSSLSASLGGKVTITCKASQDIYKYIAWYQHKPGKGPRLLIHYTSTLQPGIPSRFSGSGSGRDYSFSISNLEPEDIATYYCLQYDNLWTFGGGTKLEIKRADAAPTVSIFPPSSKLGPGGGGSGGGGSGGGGSELGRSEVKLVESGGGLVKPGGSLKLSCAASGFSFSSYAMSWVRQTPEKRLEWVASISSGGNTYYPDSVKGRFTISRDNARNILYLQMSSLRSEDTAMYYCARLDTTVEGDWYFDVWGAGTTLTVSS
B2: mAb17: monoclonal antibody specific for the NTD of HIV IN; single chain Fv sequence SEQ ID NO:195 (protein, listed as Mus musculus)
scFv: MKYLLPTAAAGLLLLAAQPAMAMGHHHHHHHHHHSSGHIDDDDKHMDVWLTQTPLSLPVSLGDQASISCRSSQTFVHSDGNTYLEWYLQKPGQSPKLLIYKISNRFSGVPDRFSGSGSGTDFTLKISGVEAEDLGLYYCFQGSHVPFTFGSGTKLEIRRADAAPTVSIFPPSSKLGPGGGGSGGGGSGGGGSELGRSQVQLQQSGAELVRPGASVTLSCKASGYTFIEYEMHWVKQAPVHGLEWIGAVDPETGGTAYNQKFKGKAILTADKSSSTGYMELRSLTSESSAVYYCARQGLGYWGQGTLVTVSA

Assays:
HIV IN = HIV IN (Human immunodeficiency virus type 1 group M subtype B, UniProt P12497); conditions: previous studies; cited from earlier work
ASV IN = ASV IN (Rous sarcoma virus subgroup C, UniProt P03354, K1536E/R1446K/V1381A); conditions: previous studies; cited from earlier work
Sequence of ASV IN (P03354 1281-1566 V1381A/R1446K/K1536E): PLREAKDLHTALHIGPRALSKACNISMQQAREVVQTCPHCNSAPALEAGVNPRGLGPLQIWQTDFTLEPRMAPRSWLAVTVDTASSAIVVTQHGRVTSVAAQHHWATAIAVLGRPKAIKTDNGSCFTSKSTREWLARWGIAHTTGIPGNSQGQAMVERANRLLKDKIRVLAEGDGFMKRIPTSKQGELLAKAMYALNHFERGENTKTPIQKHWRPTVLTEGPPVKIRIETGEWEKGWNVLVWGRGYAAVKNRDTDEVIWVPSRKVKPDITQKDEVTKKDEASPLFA

HIV IN (F181T) dimer = target: T1, HIV IN (F181T) dimer (Human immunodeficiency virus type 1 group M subtype B, UniProt P12497, F1328T); experiment: FRET multimerization assay (reaching dimer formation); format: binding; conditions: each at 1 μM; HIV IN (F181T) at 2 μM; relative to untreated control
T1 construct: made in house
Procedure: The effects of monoclonal antibodies and four small molecule inhibitors (each at 1 μM) are shown.
A multimerization assay based on fluorescence resonance energy transfer (FRET) between donor and acceptor dyes attached to C280 in HIV IN was used. The F181T substitution was introduced in order to monitor reaching dimer formation specifically (see Table 1 and FIGS. 9 and 11). One preparation was labeled with a donor fluorophore (Cy3) and a second with the acceptor (Cy5). Upon mixing (final conc. IN between 0.5 to 2 μM) and equilibration, the FRET efficiency obtained is consistent with the expected apparent distance of 60-65 Å in a reaching dimer. The Z′ factor of 0.7 obtained with this assay is in the “excellent” range for high throughput screening, and additional adjustments (e.g., use of alternative dye pairs, filter changes) may allow us to improve sensitivity even further. To validate the assay, the effects of monoclonal antibodies specific for the CTD (mAb33) or NTD (mAb17) of HIV IN were tested (FIG. 31). […] These preliminary results support the notion that compounds that either stabilize or block reaching dimer formation can result in inhibition of catalysis by IN.

| Molecule | inhibition of HIV IN (HIV IN) | inhibition of ASV IN (ASV IN) | effect on FRET-monitored IN self-association (reaching dimer formation) (HIV IN (F181T) dimer) |
| --- | --- | --- | --- |
| 2BrNSA | robust inhibition | robust inhibition |  |
| B1 |  |  | inhibit FRET-monitored self-association |
| B2 |  |  | inhibit FRET-monitored self-association |
